From the Kinase Knowledgebase extract (Sharma et al. 2016)

Assays:
[1] = target: PIK3CA (human) (UniProt P42336); test: Assessment of PIK3CA Kinase Activity
[2] = target: PIK3CG (human) (UniProt P48736); test: Assessment of PIK3CG Kinase Activity
PIK3CG (human), sequence (P48736 whole entry, looked up): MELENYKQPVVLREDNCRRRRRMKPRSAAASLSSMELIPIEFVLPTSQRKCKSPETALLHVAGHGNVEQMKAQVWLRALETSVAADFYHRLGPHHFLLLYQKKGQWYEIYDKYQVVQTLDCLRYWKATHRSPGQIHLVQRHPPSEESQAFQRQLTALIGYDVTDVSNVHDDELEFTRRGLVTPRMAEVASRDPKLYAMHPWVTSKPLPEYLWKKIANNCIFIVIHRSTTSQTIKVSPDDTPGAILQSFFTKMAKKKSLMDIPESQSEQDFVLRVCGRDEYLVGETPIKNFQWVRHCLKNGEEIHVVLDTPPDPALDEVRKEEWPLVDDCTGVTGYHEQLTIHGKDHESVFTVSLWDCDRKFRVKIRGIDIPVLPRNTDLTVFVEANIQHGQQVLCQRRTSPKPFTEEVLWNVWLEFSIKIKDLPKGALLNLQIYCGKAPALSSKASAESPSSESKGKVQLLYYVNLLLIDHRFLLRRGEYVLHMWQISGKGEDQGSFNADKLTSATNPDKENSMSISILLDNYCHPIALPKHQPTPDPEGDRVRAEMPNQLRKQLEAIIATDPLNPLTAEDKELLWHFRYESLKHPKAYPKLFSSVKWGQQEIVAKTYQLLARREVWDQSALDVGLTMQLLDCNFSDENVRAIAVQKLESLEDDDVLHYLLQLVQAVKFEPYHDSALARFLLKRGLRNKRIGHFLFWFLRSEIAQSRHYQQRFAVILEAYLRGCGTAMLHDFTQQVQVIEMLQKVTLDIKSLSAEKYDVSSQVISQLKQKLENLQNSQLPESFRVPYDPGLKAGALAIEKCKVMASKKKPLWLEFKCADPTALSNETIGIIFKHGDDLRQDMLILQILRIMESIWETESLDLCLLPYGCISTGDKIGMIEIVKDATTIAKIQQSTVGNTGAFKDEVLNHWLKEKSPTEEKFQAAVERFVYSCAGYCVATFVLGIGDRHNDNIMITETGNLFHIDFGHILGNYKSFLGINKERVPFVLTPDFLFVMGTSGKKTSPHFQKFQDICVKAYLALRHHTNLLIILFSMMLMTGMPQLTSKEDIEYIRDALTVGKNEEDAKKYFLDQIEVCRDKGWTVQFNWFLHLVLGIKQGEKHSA

PIK3CA (human), sequence (P42336 whole entry, looked up): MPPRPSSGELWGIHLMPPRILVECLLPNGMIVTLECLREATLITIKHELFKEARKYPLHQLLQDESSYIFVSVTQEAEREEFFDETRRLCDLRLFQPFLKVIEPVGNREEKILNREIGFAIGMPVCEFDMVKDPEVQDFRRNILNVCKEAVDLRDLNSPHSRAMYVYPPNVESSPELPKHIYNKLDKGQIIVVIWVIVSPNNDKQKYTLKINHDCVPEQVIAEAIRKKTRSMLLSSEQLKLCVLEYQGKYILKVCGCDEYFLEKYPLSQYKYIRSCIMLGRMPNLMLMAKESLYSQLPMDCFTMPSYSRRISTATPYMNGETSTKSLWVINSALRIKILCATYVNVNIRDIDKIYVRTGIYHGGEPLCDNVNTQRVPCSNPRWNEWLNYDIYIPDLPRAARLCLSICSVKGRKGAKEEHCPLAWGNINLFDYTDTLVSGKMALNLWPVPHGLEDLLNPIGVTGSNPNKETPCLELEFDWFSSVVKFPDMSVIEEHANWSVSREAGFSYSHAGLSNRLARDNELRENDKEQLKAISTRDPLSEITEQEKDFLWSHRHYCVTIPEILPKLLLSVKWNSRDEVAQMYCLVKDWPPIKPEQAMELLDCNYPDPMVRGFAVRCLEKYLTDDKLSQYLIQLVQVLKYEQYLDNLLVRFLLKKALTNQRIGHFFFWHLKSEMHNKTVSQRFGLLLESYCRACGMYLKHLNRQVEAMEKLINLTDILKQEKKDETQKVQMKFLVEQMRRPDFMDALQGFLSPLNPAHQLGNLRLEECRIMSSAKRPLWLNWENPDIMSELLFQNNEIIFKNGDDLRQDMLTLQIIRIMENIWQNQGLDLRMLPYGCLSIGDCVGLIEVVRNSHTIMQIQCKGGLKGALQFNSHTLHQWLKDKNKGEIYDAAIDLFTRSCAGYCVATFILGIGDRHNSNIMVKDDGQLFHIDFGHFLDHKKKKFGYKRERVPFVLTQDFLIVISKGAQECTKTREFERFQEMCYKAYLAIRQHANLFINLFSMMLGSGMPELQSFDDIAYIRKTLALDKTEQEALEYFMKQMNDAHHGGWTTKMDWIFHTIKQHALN

SMILES	IC50 [1] [µM]	IC50 [2] [µM]
CCn1ncc2c(N3CC4CCC(C3)O4)nc(-c3ccc(NC(=O)NC(=O)CCNCCN(C)C)cc3)nc21	1.83	8.11
O=C(Nc1ccc(-c2nc(N3CC4CCC(C3)O4)c3sccc3n2)cc1)NC1CC1	–	10
O=C(Nc1ccncc1)Nc1ccc(-c2nc(N3CC4CCC(C3)O4)c3cnn([C@H]4CC[C@]5(CCCO5)CC4)c3n2)cc1	–	2.22
O=C(NCCO)Nc1ccc(-c2nc(N3CC4CCC(C3)O4)c3sccc3n2)cc1	–	10
CC(=O)Nc1ccc(NC(=O)Nc2ccc(-c3nc(N4CC5CCC(C4)O5)c4cnn(C)c4n3)cc2)cc1	1.05	2.72

The next molecules have a lower IC50 [2] than those just listed; values first:

IC50 [1] [µM]	IC50 [2] [µM]	SMILES
–	0.825	COC1CCC(n2ncc3c(N4CC5CCC(C4)O5)nc(-c4ccc(NC(=O)Nc5ccncc5)cc4)nc32)CC1 (stereo not given)
0.311	0.494	CCn1ncc2c(N3CC4CCC(C3)O4)nc(-c3ccc(NC(=O)NC(=O)CNCCN(C)C)cc3)nc21
–	2.02	O=C(Nc1ccc(-c2nc(N3CC4CCC(C3)O4)c3cnn([C@H]4CC[C@]5(CCCO5)CC4)c3n2)cc1)Nc1ccc(N2CCNCC2)cc1
0.346	1.41	CN(C)CC(=O)Nc1ccc(NC(=O)Nc2ccc(-c3nc(N4CC5CCC(C4)O5)c4cnn(C)c4n3)cc2)cc1
–	2.06	O=C(Nc1ccc(-c2nc(N3CC4CCC(C3)O4)c3cnn([C@H]4CC[C@]5(CCCO5)CC4)c3n2)cc1)OCCO
–	1.45	CN1CCN(c2ccc(NC(=O)Nc3ccc(-c4nc(N5CC6CCC(C5)O6)c5cnn([C@H]6CC[C@]7(CCCO7)CC6)c5n4)cc3)cc2)CC1
